Results reported in patent publication US20240368676A1, “KITS FOR DETECTING ONE OR MORE TARGET ANALYTES IN A SAMPLE AND METHODS OF MAKING AND USING THE SAME” (Meso Scale Technologies, LLC., priority 2020, published 2024).
Like-named read-outs stand apart in the source and are kept apart here.

Assays:
[1] = tested on: spot with the capture oligonucleotide with SEQ ID NO: 5; assay: Comparison of blocking conditions for preparing arrays (cross-reactivity from cross-contamination); format: binding
Procedure: Blocking conditions for removing excess capture oligonucleotides from arrays were compared. Plates with printed arrays were prepared as described in Example 2 and blocked and washed as described in Example 4, except for varying the composition of the blocking solution. Specificity of the arrays was then characterized as described in Example 4.

rs3842 (ABCB1 c.*193A>G) = assay: Lung cancer SNP panel OLA on PCR-amplified cell line DNA; details: PCR-amplified DNA from HIL-60 cell line
Procedure: (§1) The probe sequences used for each mutation are provided in Tables 42 (upstream) and 43 (downstream), below.
(§2) To test the probes for each mutation, probes from either the 1st or 2nd strand were chosen and tested against DNA extracted from a HIL-60 cell line. DNA was extracted using the Gentra Puregene Cell Kit (Qiagen Cat #158388) and 10 ng DNA was amplified using the MyTaq HS Master Mix (Bioline Cat #BIO-25045) and assay-specific PCR forward and revers primers, shown in Tables 44 and 45, respectively.
(§3) Following amplification, OLA was performed as described in Example 7 and the frequency of WT and Mutant alleles was determined.

[2] = tested on: rs212090 (ABCC1 c.*866T>A); assay: as above; details: PCR-amplified DNA from HIL-60 cell line
Procedure: as §1, §2, §3

rs2273535 (AURKA F31J) = assay: as above; details: PCR-amplified DNA from HIL-60 cell line
Procedure: as §1, §2, §3

[3] = tested on: rs1801270 (CDKN1A c.93C>A); assay: as above; details: PCR-amplified DNA from HIL-60 cell line
Procedure: as §1, §2, §3

[4] = tested on: rs17879961 (CHEK2 c.599T>C); assay: as above; details: PCR-amplified DNA from HIL-60 cell line
Procedure: as §1, §2, §3

rs1051730 (CHRNA3 D398N) = assay: as above; details: PCR-amplified DNA from HIL-60 cell line
Procedure: as §1, §2, §3

[5] = tested on: rs8034191 (LOC123688 or HYKK c.337+256T>C); assay: as above; details: PCR-amplified DNA from HIL-60 cell line
Procedure: as §1, §2, §3

rs1801133 (MTHFR C677T) = assay: as above; details: PCR-amplified DNA from HIL-60 cell line
Procedure: as §1, §2, §3

miR-122 [6] = details: reported by Rissin et al., PLOS One (2017); cited from earlier work
miR-122 [7] = assay: miRNA detection using an RNase protection assay (chimeric DNA/RNA probe, ECL); details: synthetic miR-122 miRNA
Text: An RNase protection assay can be used for miRNA quantification. In the assay, a DNA/RNA chimeric probe is used that contains an oligonucleotide tag sequence that is complementary a capture oligonucleotide sequence and a miRNA complementary sequence. The oligonucleotide tag sequence can be a single stranded DNA (ssDNA) sequence included on the 5′ end of the chimeric probe and the miRNA complementary sequence can be a single stranded RNA (ssRNA) sequence at the 3′ end of the chimeric probe, along with a terminal 3′ biotin.
Briefly, miRNA can be detected as follows: • 1). Hybridize miRNA to the chimeric probe in a thermal cycler to form a hybridization product; • 2). Block assay plate using one or more known blocking agent; • 3). Add hybridization product with formamide to the blocked assay plate under conditions in which the oligonucleotide tag sequence of the hybridization product can hybridize to the capture oligonucleotides on the assay plate. Incubate at 37° C.; • 4). Perform on-plate digestion of ssRNA with RNase A or RNase I (30° C.-37° C.) to digest the following: • a). ssRNA that has not been hybridized to the probe; • b). Probe hybridized to the plate without the complementary miRNA; and • c). […] Add Read Buffer B to assay plate and measure ECL signal generation with MSD Imager; and • 7). Compare the results against a calibration curve for quantification. […]

N[C@@H](CS)C(=O)O [cysteine]
cross-reactivity ([1]; cysteine added to the Tris/Triton formulation): ≤ 0.01%
blocking effectiveness ([1]; cysteine concentrations ranging from 5 to 50 to 500 mM, separate experiments): effective at blocking

ABCB1 rs3842 (DNA AGCAAGGCAGTCAGTTACAG; listed as DNA, chemistry not given here)
% Mutant (rs3842 (ABCB1 c.*193A>G)): 52.4%
% Wild-type (rs3842 (ABCB1 c.*193A>G)): 47.6%
Genotype (rs3842 (ABCB1 c.*193A>G)): Heterozygous (mutation percentages between 30% and 70% were classified as heterozygous (50% mutation))

ABCC1 rs212090 (DNA AGGCCATCTCCTTAATATTTACCC; listed as DNA, chemistry not given here)
% Mutant [2]: 48.6%
% Wild-type [2]: 51.4%
Genotype [2]: Heterozygous (mutation percentages between 30% and 70% were classified as heterozygous (50% mutation))

AURKA rs2273535 (DNA CTTCCATTCTAGGCTACAGCTC; listed as DNA, chemistry not given here)
% Mutant (rs2273535 (AURKA F31J)): 0.5%
% Wild-type (rs2273535 (AURKA F31J)): 99.5%
Genotype (rs2273535 (AURKA F31J)): Homozygous (WT) (Measured mutation percentages <20% were classified as homozygous wildtype samples)

CDKN1A rs1801270 (DNA TCGAAGTTCCATCGCTCAC; listed as DNA, chemistry not given here)
% Mutant [3]: 0.1%
% Wild-type [3]: 99.9%
Genotype [3]: Homozygous (WT) (Measured mutation percentages <20% were classified as homozygous wildtype samples)

CHEK2 rs17879961 (DNA TCCATTGCCACTGTGATCTTC; listed as DNA, chemistry not given here)
% Mutant [4]: 0.8%
% Wild-type [4]: 99.2%
Genotype [4]: Homozygous (WT) (Measured mutation percentages <20% were classified as homozygous wildtype samples)

CHRNA3 rs1051730 (DNA CGGATGTACAGCGAGTATGTG; listed as DNA, chemistry not given here)
% Mutant (rs1051730 (CHRNA3 D398N)): 0.1%
% Wild-type (rs1051730 (CHRNA3 D398N)): 99.9%
Genotype (rs1051730 (CHRNA3 D398N)): Homozygous (WT) (Measured mutation percentages <20% were classified as homozygous wildtype samples)

LOC123688 rs8034191 (DNA CCCTGATTTCCACAAGTCC; listed as DNA, chemistry not given here)
% Mutant [5]: 1.0%
% Wild-type [5]: 99.0%
Genotype [5]: Homozygous (WT) (Measured mutation percentages <20% were classified as homozygous wildtype samples)

MTHFR rs180113 (DNA CTTCACAAAGCGGAAGAATGTG; listed as DNA, chemistry not given here)
% Mutant (rs1801133 (MTHFR C677T)): 42.8%
% Wild-type (rs1801133 (MTHFR C677T)): 57.2%
Genotype (rs1801133 (MTHFR C677T)): Heterozygous (mutation percentages between 30% and 70% were classified as heterozygous (50% mutation))

miR-122: synthetic miR-122 miRNA, target sequence in Table 47 (UGGAGUGUGACAAUGGUGUUUG; listed as RNA, chemistry not fully specified; the letters are possibly those of the target site)
concentration detected (miR-122 [6]): 500 fM
concentration detected (miR-122 [7]): 160 fM
